Assay results from ChEMBL document CHEMBL1671648, “Molecular epidemiology of outbreak-related pseudomonas aeruginosa strains carrying the novel variant blaVIM-17 metallo-beta-lactamase gene” (2009).
In brackets after ≈: the same amount, converted by molar mass.

What was measured:
Pseudomonas aeruginosa [1] = assay: Antibacterial activity against blaVIM-2-positive Pseudomonas aeruginosa by CLSI broth microdilution method; assay type: functional
Pseudomonas aeruginosa [2] = assay: Antibacterial activity against blaVIM-2-positive Pseudomonas aeruginosa by CLSI Etest method; assay type: functional

C[C@@H](O)[C@H]1C(=O)N2C(C(=O)O)=C(S[C@@H]3CN[C@H](C(=O)N(C)C)C3)[C@H](C)[C@H]12 [MEROPENEM]
MIC (Pseudomonas aeruginosa [1]): 32 µg/mL (≈ 83.4 µM)

C[C@@H](O)[C@H]1C(=O)N2C(C(=O)O)=C(SCCNC=N)C[C@H]12 [IMIPENEM ANHYDROUS]
MIC (Pseudomonas aeruginosa [2]): ≥ 128 µg/mL
